Molecular target: T1, ROCKII or ROKα (Homo sapiens, UniProt O75116)
T1 construct: purchased Upstate 14-451
Assay: Determination of Rho kinase inhibition (33P-ATP Flash Plate assay)
Type: biochemical
Settings: ATP 40 μM, respective form (salt or free base) as obtained in the examples
Procedure: Determination of Rho Kinase Inhibition
To measure Rho-kinase inhibition, IC50 values were determined according to the following protocol:
Buffer: 25 mM Tris pH7.5; 0.02% BSA; 5% Glycerol; 0.008% Triton X100; 2% DMSO, 1 mM DTT; 1 mM MgCl2; 0.5 μCi/well γ^33P ATP
Enzyme: ROCKII or ROKα) (Upstate, Catalog #14-451) 0.1 ng/μl
Final concentration of ATP in reaction mixture 40 μM
Biotinylated substrate, diluted to 0.25 μM with buffer described above (without ATP) • 1. 10 μl Tris buffer (±Inhibitor) • 2. Add 30 μL of enzyme solution • 3. Start the reaction with 30 μL of mix substrate/ATP/ATP33 • 4. Incubate for 20 min at room temperature • 5. Stop reaction with 30 μL of 50 mM EDTA • 6. Transfer 50 μL of stopped solution to Streptavidin Flash Plate plus, Perkin Elmer, SMP 103A • 7. Incubate for 30 min at RT • 8. Wash 4 times with 300 μl of PBS/0.1% Tween 20 • 9. Radioactivity in the well was determined
The following products/compounds were tested in said assay by using the respective form (salt or free base) obtained as in the examples described above and the following activities were measured.

T1 sequence (O75116 whole entry): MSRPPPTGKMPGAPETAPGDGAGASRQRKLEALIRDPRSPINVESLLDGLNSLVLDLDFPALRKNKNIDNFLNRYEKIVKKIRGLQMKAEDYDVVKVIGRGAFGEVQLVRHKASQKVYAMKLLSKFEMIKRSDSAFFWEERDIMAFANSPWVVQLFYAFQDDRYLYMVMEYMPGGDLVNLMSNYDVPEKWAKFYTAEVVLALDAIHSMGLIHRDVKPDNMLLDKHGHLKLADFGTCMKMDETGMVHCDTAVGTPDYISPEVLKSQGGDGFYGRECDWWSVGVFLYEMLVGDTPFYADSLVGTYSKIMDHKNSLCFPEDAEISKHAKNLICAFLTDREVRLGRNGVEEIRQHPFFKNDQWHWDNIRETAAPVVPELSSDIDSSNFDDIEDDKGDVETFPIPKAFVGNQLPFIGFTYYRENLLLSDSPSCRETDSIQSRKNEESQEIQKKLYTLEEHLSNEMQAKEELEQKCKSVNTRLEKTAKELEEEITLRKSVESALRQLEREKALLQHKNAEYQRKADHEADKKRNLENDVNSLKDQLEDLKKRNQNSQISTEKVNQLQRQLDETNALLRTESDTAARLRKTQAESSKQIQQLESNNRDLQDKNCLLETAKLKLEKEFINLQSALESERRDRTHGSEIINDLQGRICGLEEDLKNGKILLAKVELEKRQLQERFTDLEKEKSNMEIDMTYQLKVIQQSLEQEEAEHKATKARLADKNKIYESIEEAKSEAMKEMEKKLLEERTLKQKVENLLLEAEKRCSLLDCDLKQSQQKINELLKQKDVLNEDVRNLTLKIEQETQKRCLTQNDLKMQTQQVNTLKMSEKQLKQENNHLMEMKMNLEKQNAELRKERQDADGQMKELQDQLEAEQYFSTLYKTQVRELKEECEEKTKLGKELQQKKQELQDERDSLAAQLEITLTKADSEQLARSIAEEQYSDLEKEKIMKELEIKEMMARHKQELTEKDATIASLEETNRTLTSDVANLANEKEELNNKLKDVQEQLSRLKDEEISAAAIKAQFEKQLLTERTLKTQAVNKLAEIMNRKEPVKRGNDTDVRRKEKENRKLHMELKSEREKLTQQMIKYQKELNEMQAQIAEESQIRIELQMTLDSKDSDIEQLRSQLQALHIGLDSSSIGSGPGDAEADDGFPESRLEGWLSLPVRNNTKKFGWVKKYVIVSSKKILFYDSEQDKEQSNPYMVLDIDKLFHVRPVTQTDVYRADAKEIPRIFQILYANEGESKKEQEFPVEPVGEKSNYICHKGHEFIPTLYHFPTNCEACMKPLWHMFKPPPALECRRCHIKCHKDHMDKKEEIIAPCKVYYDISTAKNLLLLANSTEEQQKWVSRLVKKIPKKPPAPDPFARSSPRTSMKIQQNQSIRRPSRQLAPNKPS

N[C@H]1CC[C@@H](Oc2cc3cc[nH]c(=O)c3cc2Cl)CC1 [Example 10, 6-(cis-4-Amino-cyclohexyloxy)-7-chloro-2H-isoquinolin-1-one]
pIC50: +++++ (6.0≦pIC50)

N[C@H]1CC[C@@H](Oc2ccc3c(=O)[nH]ccc3c2Cl)CC1 [Example 11, 6-(cis-4-Amino-cyclohexyloxy)-5-chloro-2H-isoquinolin-1-one]
pIC50: +++++ (6.0≦pIC50)

O=c1[nH]ccc2cc(O[C@H]3CC[C@@H](NC4CC4)CC3)c(Cl)cc12 [Example 12, 7-Chloro-6-(cis-4-cyclopropylamino-cyclohexyloxy)-2H-isoquinolin-1-one]
pIC50: +++++ (6.0≦pIC50)

O=c1[nH]ccc2cc(O[C@H]3CC[C@@H](N(C4CC4)C4CC4)CC3)c(Cl)cc12 [Example 13, 7-Chloro-6-(cis-4-dicyclopropylamino-cyclohexyloxy)-2H-isoquinolin-1-one]
pIC50: +++++ (6.0≦pIC50)

N[C@H]1CC[C@H](Oc2cc3cc[nH]c(=O)c3cc2Cl)CC1 [Example 14, 6-(trans-4-Amino-cyclohexyloxy)-7-chloro-isoquinolin-1-ol]
pIC50: +++++ (6.0≦pIC50)

N[C@H]1CC[C@H](Oc2ccc3c(=O)[nH]ccc3c2)CC1 [Example 20, trans-6-(4-Amino-cyclohexyloxy)-2H-isoquinolin-1-one]
pIC50: +++++ (6.0≦pIC50)

CCN[C@H]1CC[C@@H](Oc2cc3cc[nH]c(=O)c3cc2Cl)CC1 [Example 29]
pIC50: +++++ (6.0≦pIC50)

O=c1[nH]ccc2cc(O[C@H]3CC[C@@H](NCc4cccc(Cl)c4)CC3)c(Cl)cc12 [Example 37]
pIC50: +++++ (6.0≦pIC50)

O=c1[nH]ccc2cc(O[C@H]3CC[C@@H](N(CC4CC4)CC4CC4)CC3)c(Cl)cc12 [Example 41]
pIC50: +++++ (6.0≦pIC50)

CCCN[C@H]1CC[C@@H](Oc2ccc3c(=O)[nH]ccc3c2Cl)CC1 [Example 44]
pIC50: +++++ (6.0≦pIC50)

CCCCN[C@H]1CC[C@@H](Oc2ccc3c(=O)[nH]ccc3c2Cl)CC1 [Example 45]
pIC50: +++++ (6.0≦pIC50)

CC(C)N[C@H]1CC[C@@H](Oc2ccc3c(=O)[nH]ccc3c2Cl)CC1 [Example 46]
pIC50: +++++ (6.0≦pIC50)

O=c1[nH]ccc2c(Cl)c(O[C@H]3CC[C@@H](NCC4CC4)CC3)ccc12 [Example 48]
pIC50: +++++ (6.0≦pIC50)

CCCCN(CCCC)[C@H]1CC[C@@H](Oc2ccc3c(=O)[nH]ccc3c2Cl)CC1 [Example 53]
pIC50: ++++ (5.0≦pIC50<6.0)

CCN(CC)[C@H]1CC[C@H](Oc2cc3cc[nH]c(=O)c3cc2Cl)CC1 [Example 56]
pIC50: +++++ (6.0≦pIC50)

CCCCN[C@H]1CC[C@H](Oc2cc3cc[nH]c(=O)c3cc2Cl)CC1 [Example 58]
pIC50: +++++ (6.0≦pIC50)

CC(C)CN(CC(C)C)[C@H]1CC[C@H](Oc2cc3cc[nH]c(=O)c3cc2Cl)CC1 [Example 65]
pIC50: +++++ (6.0≦pIC50)

O=c1[nH]ccc2cc(O[C@H]3CC[C@H](N(CC4CC4)CC4CC4)CC3)c(Cl)cc12 [Example 66]
pIC50: ++++ (5.0≦pIC50<6.0)

O=c1[nH]ccc2cc(O[C@H]3CC[C@@H](NCc4ccccc4)CC3)c(Cl)cc12 [Example 67]
pIC50: +++++ (6.0≦pIC50)

O=c1[nH]ccc2cc(O[C@H]3CC[C@@H](NCc4cc(Cl)cc(Cl)c4)CC3)c(Cl)cc12 [Example 69]
pIC50: +++++ (6.0≦pIC50)

O=c1[nH]ccc2cc(O[C@H]3CC[C@@H](NCc4cc(Cl)ccc4Cl)CC3)c(Cl)cc12 [Example 70]
pIC50: +++++ (6.0≦pIC50)

O=c1[nH]ccc2cc(O[C@H]3CC[C@@H](NCc4ccc(Cl)cc4Cl)CC3)c(Cl)cc12 [Example 71]
pIC50: +++++ (6.0≦pIC50)

O=c1[nH]ccc2cc(O[C@H]3CC[C@@H](NCc4ccc5ccccc5c4)CC3)c(Cl)cc12 [Example 77]
pIC50: +++++ (6.0≦pIC50)

O=c1[nH]ccc2cc(O[C@H]3CC[C@@H](NCC4CC4)CC3)ccc12 [Example 125, 6-[cis-4-(Cyclopropylmethyl-amino)-cyclohexyloxy]-2H-isoquinolin-1-one]
pIC50: +++++ (6.0≦pIC50)

Cc1cc2c(=O)[nH]ccc2cc1O[C@H]1CC[C@H](N)CC1 [Example 137, 6-(trans-4-Amino-cyclohexyloxy)-7-methyl-2H-isoquinolin-1-one]
pIC50: +++++ (6.0≦pIC50)

Cc1cc2c(=O)[nH]ccc2cc1O[C@H]1CC[C@@H](N)CC1.Cl [Example 138, 6-(cis-4-Amino-cyclohexyloxy)-7-methyl-2H-isoquinolin-1-one]
pIC50: +++++ (6.0≦pIC50)
